What was measured:
Entamoeba histolytica [1] = experiment: Amoebicidal activity against trophozoite stage of Entamoeba histolytica HM-1:IMSS assessed as growth inhibition after 72 hrs by carboxyfluorescein diacetate/propidium iodide staining-based fluorescence microscopic analysis; type: functional, organism-based
Entamoeba histolytica [2] = experiment: Potency index, ratio of metronidazole IC50 to compound IC50 for trophozoite stage of Entamoeba histolytica HM-1:IMSS; type: functional

Molecule `C(=N\Nc1ccccc1)/c1ccco1` has an IC50 (Entamoeba histolytica [1]) of 120 µM.

For `O=[N+]([O-])c1ccc(-c2ccc(/C=N/N=C/c3ccc(-c4ccc([N+](=O)[O-])cc4)o3)o2)cc1`, the IC50 (Entamoeba histolytica [1]) was 13 µM.

Work on `O=[N+]([O-])c1cccc(/C=N/N(c2ccccc2)c2ccccc2)c1` yielded an IC50 (Entamoeba histolytica [1]) of 19 µM.

For `O=C(/C(=N/N=C(/C(=O)c1ccccc1)c1ccccc1)c1ccccc1)c1ccccc1`, the IC50 (Entamoeba histolytica [1]) was 18 µM.

With `C(=N\N(c1ccccc1)c1ccccc1)/c1ccccc1` the IC50 (Entamoeba histolytica [1]) was 78 µM.

With `Cc1ncc([N+](=O)[O-])n1CCO` [METRONIDAZOLE] the IC50 (Entamoeba histolytica [1]) was 6.8 µM.

`C(=N\N=C\c1ccccc1)/c1ccccc1` showed an IC50 (Entamoeba histolytica [1]) of 96 µM.

Molecule `C(=N\N(c1ccccc1)c1ccccc1)/c1cccs1` has an IC50 (Entamoeba histolytica [1]) of 7.6 µM.

Work on `O=[N+]([O-])c1ccc(-c2ccc(/C=N/N(c3ccccc3)c3ccccc3)o2)cc1` yielded an IC50 (Entamoeba histolytica [1]) of 16 µM.

In the case of `O=[N+]([O-])c1ccc(-c2ccc(/C=N/Nc3ccccc3)o2)cc1`, the IC50 (Entamoeba histolytica [1]) is reported as 0.98 µM and the “Ratio IC50” value (Entamoeba histolytica [2]) is reported as 7.

— ChEMBL document CHEMBL3585288, “Synthesis, characterization and evaluation of the substituent effect on the amoebicide activity of new hydrazone derivatives” (Medchemcomm, 2014)
